From patent publication US11566030B2, “Substituted 2,6-dihydropyrrolo[3,4-c]pyrazoles as pyruvate kinase activators” (priority 2021, dated 2023) come the findings set out here.

Like-named read-outs stand apart in the source and are kept apart here.

This experiment addresses T1, Human pyruvate kinase R (PKR) (Homo sapiens, UniProt P30613).
T1 construct: Human pyruvate kinase R (PKR), residues 14-574; 6xHis-8xArg-SUMO (N, cleaved yes); host or cells: E. coli
The experiment can be described thus: Biochemical assay for activation of pyruvate kinase R (Kinase-Glo luminescence, ATP generation). The conditions noted are these: for Emax: read-out: PKR % activation, maximal activation level achieved with each compound relative to the activation level achieved by AG-348 @ 10 μM. A digest of the protocol:
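Recombinant human PKR (residues 14-574) expressed in E. coli with His-Arg-SUMO tag, tag cleaved, purified by Ni-NTA, anion exchange and size exclusion. Activation read as ATP generation by Kinase-Glo luminescence.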
For orientation: In Kinase-Glo more light means more ATP remaining.

The mark [1] stands for this setting: PKR AC50 (nM), 0.1 nM PKR, 0.3 mM ADP, 0.1 mM PEP, 1% DMSO.

T1 sequence (P30613 14-574): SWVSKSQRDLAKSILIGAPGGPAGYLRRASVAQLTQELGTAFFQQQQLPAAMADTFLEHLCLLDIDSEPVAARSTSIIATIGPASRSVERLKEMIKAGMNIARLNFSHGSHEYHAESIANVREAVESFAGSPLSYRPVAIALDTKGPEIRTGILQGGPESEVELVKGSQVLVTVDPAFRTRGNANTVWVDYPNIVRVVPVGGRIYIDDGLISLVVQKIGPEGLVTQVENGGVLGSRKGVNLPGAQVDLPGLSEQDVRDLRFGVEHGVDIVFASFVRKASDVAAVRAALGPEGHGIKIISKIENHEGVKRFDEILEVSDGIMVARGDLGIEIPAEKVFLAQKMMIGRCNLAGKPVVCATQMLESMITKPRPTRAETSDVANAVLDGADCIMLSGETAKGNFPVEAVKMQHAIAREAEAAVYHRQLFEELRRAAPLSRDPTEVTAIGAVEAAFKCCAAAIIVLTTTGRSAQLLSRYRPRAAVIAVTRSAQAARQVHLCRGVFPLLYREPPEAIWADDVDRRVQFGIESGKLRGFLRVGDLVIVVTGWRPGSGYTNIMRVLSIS

By AC50 is commonly meant the concentration at which the activity in the assay is half-maximal. Higher therefore signals activity only at high concentration. `CCn1cc(S(=O)(=O)n2cc3c(n2)CN(C(=O)[C@@H](CO)c2ccccc2)C3)c(C(F)(F)F)n1` [Compound 95, (2R)-1-{2-[1-ethyl-3-(trifluoromethyl)pyrazol-4-ylsulfonyl]-4H,6H-pyrrolo[3,4-c]pyrazol-5-yl}-3-hydroxy-2-phenylpropan-1-one]: the Emax worked out at 15%. The compound further displayed an AC50 under setting [1] of 2900 nM.

Consider `Cc1c(S(=O)(=O)n2cc3c(n2)CN(C(=O)[C@H](CO)c2ccccc2F)C3)cnn1CCF` [Compound 96], for which the AC50 is 6.4 nM and the Emax worked out at 93%.

Take `Cc1c(S(=O)(=O)n2cc3c(n2)CN(C(=O)[C@@H](CO)c2ccccc2F)C3)cnn1CCF` [Compound 97, (2R)-1-{2-[1-(2-fluoroethyl)-5-methylpyrazol-4-ylsulfonyl]-4H,6H-pyrrolo[3,4-c]pyrazol-5-yl}-2-(2-fluorophenyl)-3-hydroxypropan-1-one]: the AC50 is 550 nM and the Emax is 102%.

In the case of `Cc1c(S(=O)(=O)n2cc3c(n2)CN(C(=O)[C@H](CO)c2ccccc2Cl)C3)cnn1CCF` [Compound 98, (2S)-2-(2-chlorophenyl)-1-{2-[1-(2-fluoroethyl)-5-methylpyrazol-4-ylsulfonyl]-4H,6H-pyrrolo[3,4-c]pyrazol-5-yl}-3-hydroxypropan-1-one], the Emax came out at 117%. Also, the AC50 under setting [1] came to 9.1 nM.

With `Cc1c(S(=O)(=O)n2cc3c(n2)CN(C(=O)[C@@H](CO)c2ccccc2Cl)C3)cnn1CCF` [Compound 99, (2R)-2-(2-chlorophenyl)-1-{2-[1-(2-fluoroethyl)-5-methylpyrazol-4-ylsulfonyl]-4H,6H-pyrrolo[3,4-c]pyrazol-5-yl}-3-hydroxypropan-1-one], the Emax is 100%. The activity under setting [1] was half-maximal at 410 nM (AC50).

For the compound `Cc1c(S(=O)(=O)n2cc3c(n2)CN(C(=O)[C@@H](CO)c2ccccc2F)C3)cnn1CC(F)F` [Compound 100, (R)-1-(2-((1-(2,2-difluoroethyl)-5-methyl-1H-pyrazol-4-yl)sulfonyl)-2,6 dihydropyrrolo[3,4-c]pyrazol-5(4H)-yl)-2-(2-fluorophenyl)-3-hydroxypropan-1-one], the AC50 was determined as 380 nM and the Emax turned out to be 126%.

With `Cc1c(S(=O)(=O)n2cc3c(n2)CN(C(=O)[C@H](CO)c2ccccc2Cl)C3)cnn1CC(F)F` [Compound 101, (2S)-2-(2-chlorophenyl)-1-{2-[1-(2,2-difluoroethyl)-5-methylpyrazol-4-ylsulfonyl]-4H,6H-pyrrolo[3,4-c]pyrazol-5-yl}-3-hydroxypropan-1-one], the Emax was 123%. For the same compound, under setting [1], the AC50 came to 8.5 nM.

In the case of `Cc1c(S(=O)(=O)n2cc3c(n2)CN(C(=O)[C@@H](CO)c2ccccc2Cl)C3)cnn1CC(F)F` [Compound 102, (2R)-2-(2-chlorophenyl)-1-{2-[1-(2,2-difluoroethyl)-5-methylpyrazol-4-ylsulfonyl]-4H,6H-pyrrolo[3,4-c]pyrazol-5-yl}-3-hydroxypropan-1-one], the Emax stood at 126%. This compound came in with an AC50 under setting [1] of 690 nM.

On to `COc1ccccc1[C@@H](CO)C(=O)N1Cc2cn(S(=O)(=O)c3cnn(CC(F)F)c3C)nc2C1` [Compound 103, (2S)-1-{2-[1-(2,2-difluoroethyl)-5-methylpyrazol-4-ylsulfonyl]-4H,6H-pyrrolo[3,4-c]pyrazol-5-yl}-3-hydroxy-2-(2-methoxyphenyl)propan-1-one], for which the Emax is 101%. The compound also yielded an AC50 under setting [1] of 26 nM.

With `COc1ccccc1[C@H](CO)C(=O)N1Cc2cn(S(=O)(=O)c3cnn(CC(F)F)c3C)nc2C1` [Compound 104, (2R)-1-{2-[1-(2,2-difluoroethyl)-5-methylpyrazol-4-ylsulfonyl]-4H,6H-pyrrolo[3,4-c]pyrazol-5-yl}-3-hydroxy-2-(2-methoxyphenyl)propan-1-one], the Emax came out at 121%. This compound also yielded an AC50 under setting [1] of 560 nM.

As for `CCc1ccccc1[C@@H](CO)C(=O)N1Cc2cn(S(=O)(=O)c3cnn(CC(F)F)c3)nc2C1` [Compound 105, (S)-1-(2-((1-(2,2-difluoroethyl)-1H-pyrazol-4-yl)sulfonyl)-2,6-dihydropyrrolo[3,4-c]pyrazol-5(4H)-yl)-2-(2-ethylphenyl)-3-hydroxypropan-1-one], the Emax worked out at 67%. The same compound had an AC50 under setting [1] of 74 nM.

With `CCc1ccccc1[C@H](CO)C(=O)N1Cc2cn(S(=O)(=O)c3cnn(CC(F)F)c3)nc2C1` [Compound 106, (R)-1-(2-((1-(2,2-difluoroethyl)-1H-pyrazol-4-yl)sulfonyl)-2,6-dihydropyrrolo[3,4-c]pyrazol-5(4H)-yl)-2-(2-ethylphenyl)-3-hydroxypropan-1-one], the Emax turned out to be 189%. Under setting [1], half-maximal activity (AC50) was put at 210 nM.

Take `O=C([C@H](CO)c1ccccc1Cl)N1Cc2cn(S(=O)(=O)c3ncn(CC(F)F)n3)nc2C1` [Compound 107, (2S)-2-(2-chlorophenyl)-1-{2-[1-(2,2-difluoroethyl)-1,2,4-triazol-3-ylsulfonyl]-4H,6H-pyrrolo[3,4-c]pyrazol-5-yl}-3-hydroxypropan-1-one]: the Emax came out at 89%. The compound further returned an AC50 under setting [1] of 53 nM.

`O=C([C@@H](CO)c1ccccc1Cl)N1Cc2cn(S(=O)(=O)c3ncn(CC(F)F)n3)nc2C1` [Compound 108, (2R)-2-(2-chlorophenyl)-1-{2-[1-(2,2-difluoroethyl)-1,2,4-triazol-3-ylsulfonyl]-4H,6H-pyrrolo[3,4-c]pyrazol-5-yl}-3-hydroxypropan-1-one]: the Emax turned out to be 62%. This compound also returned a concentration at half-maximal activity (AC50) under setting [1] of 3300 nM.

As to `CCn1ncc(S(=O)(=O)n2cc3c(n2)CN(C(=O)[C@H](CO)c2ccccc2)C3)c1C(F)(F)F` [Compound 111, (2S)-1-{2-[1-ethyl-5-(trifluoromethyl)pyrazol-4-ylsulfonyl]-4H,6H-pyrrolo[3,4-c]pyrazol-5-yl}-3-hydroxy-2-phenylpropan-1-one], the Emax amounted to 42%. The compound also registered a half-maximal activity concentration (AC50) under setting [1] of 1600 nM.

Consider `CCn1ncc(S(=O)(=O)n2cc3c(n2)CN(C(=O)[C@@H](CO)c2ccccc2)C3)c1C(F)(F)F` [Compound 112, (2R)-1-{2-[1-ethyl-5-(trifluoromethyl)pyrazol-4-ylsulfonyl]-4H,6H-pyrrolo[3,4-c]pyrazol-5-yl}-3-hydroxy-2-phenylpropan-1-one], for which the Emax was determined as 174%. Moreover, half-maximal activity under setting [1] (AC50) was put at 3100 nM.

For `O=C([C@H](CO)c1ccccc1)N1Cc2cn(S(=O)(=O)c3cnn(C4CCOC4)c3)nc2C1` (stereo partly drawn) [Compound 113, (2S)-3-hydroxy-1-(2-{[1-(oxolan-3-yl)-1H-pyrazol-4-yl]sulfonyl}-2H,4H,5H,6H-pyrrolo[3,4-c]pyrazol-5-yl)-2-phenylpropan-1-one], half-maximal activity (AC50) was put at 24 nM and the Emax was 47%.

As for `COC(C(=O)N1Cc2cn(S(=O)(=O)c3cnn(CC(F)F)c3)nc2C1)c1ccccc1F` (stereo not shown) [Compound 114], the Emax was 134%. Further, under setting [1], the AC50 stood at 320 nM.

For `COC(C(=O)N1Cc2cn(S(=O)(=O)c3cnn(CC(F)F)c3)nc2C1)c1ncccc1F` (stereo not shown) [Compound 115, 1-(2-{[1-(2,2-difluoroethyl)-1H-pyrazol-4-yl]sulfonyl}-2H,4H,5H,6H-pyrrolo[3,4-c]pyrazol-5-yl)-2-(3-fluoropyridin-2-yl)-2-methoxyethan-1-one], the AC50 amounted to 2100 nM and the Emax was found to be 96%.

As for `O=C([C@H](CO)c1ccccc1)N1Cc2cn(S(=O)(=O)c3cnn(C(F)F)c3)nc2C1` [Compound 116, (2S)-1-(2-{[1-(difluoromethyl)-1H-pyrazol-4-yl]sulfonyl}-2H,4H,5H,6H-pyrrolo[3,4-c]pyrazol-5-yl)-3-hydroxy-2-phenylpropan-1-one], the Emax stood at 53%. Further, under setting [1], the AC50 was determined as 34 nM.

Regarding `O=C([C@H](CO)c1ccccc1)N1Cc2cn(S(=O)(=O)c3csc(C(F)(F)F)c3)nc2C1` [Compound 117, (2S)-3-hydroxy-2-phenyl-1-(2-{[5-(trifluoromethyl)thiophen-3-yl]sulfonyl}-2H,4H,5H,6H-pyrrolo[3,4-c]pyrazol-5-yl)propan-1-one], the Emax was 35%. The same compound came in with a half-maximal activity concentration (AC50) under setting [1] of 22 nM.

Take `O=C([C@H](CO)c1ccccc1)N1Cc2cn(S(=O)(=O)c3c[nH]c(C(F)(F)F)c3)nc2C1` [Compound 118, (2S)-3-hydroxy-2-phenyl-1-(2-{[5-(trifluoromethyl)-1H-pyrrol-3-yl]sulfonyl}-2H,4H,5H,6H-pyrrolo[3,4-c]pyrazol-5-yl)propan-1-one]: the AC50 was 160 nM and the Emax amounted to 13%.

Turning to `CCOc1ncc(S(=O)(=O)n2cc3c(n2)CN(C(=O)[C@H](CO)c2ccccc2)C3)s1` [Compound 119, (2S)-1-{2-[(2-ethoxy-1,3-thiazol-5-yl)sulfonyl]-2H,4H,5H,6H-pyrrolo[3,4-c]pyrazol-5-yl}-3-hydroxy-2-phenylpropan-1-one], the activity was half-maximal at 54 nM (AC50) and the Emax was 58%.

For the compound `COc1ccccc1[C@@H](CO)C(=O)N1Cc2cn(S(=O)(=O)c3cnn(CC(F)F)c3)nc2C1` [Compound 120, (2S)-1-{2-[1-(2,2-difluoroethyl)pyrazol-4-ylsulfonyl]-4H,6H-pyrrolo[3,4-c]pyrazol-5-yl}-3-hydroxy-2-(2-methoxyphenyl)propan-1-one], the AC50 is 16 nM and the Emax came out at 102%.

As for `COc1ccccc1[C@H](CO)C(=O)N1Cc2cn(S(=O)(=O)c3cnn(CC(F)F)c3)nc2C1` [Compound 121, (2R)-1-{2-[1-(2,2-difluoroethyl)pyrazol-4-ylsulfonyl]-4H,6H-pyrrolo[3,4-c]pyrazol-5-yl}-3-hydroxy-2-(2-methoxyphenyl)propan-1-one], the AC50 came out at 98 nM and the Emax was determined as 166%.

On to `O=C([C@@H](CO)c1ccccc1)N1Cc2cn(S(=O)(=O)c3cnn(CC(F)F)c3)nc2C1` [Compound 122, (2R)-1-(2-{[1-(2,2-difluoroethyl)-1H-pyrazol-4-yl]sulfonyl}-2H,4H,5H,6H-pyrrolo[3,4-c]pyrazol-5-yl)-3-hydroxy-2-phenylpropan-1-one], for which the Emax turned out to be 120%. Under setting [1], this compound yielded an AC50 of 240 nM.
